Laboratory results reported in patent US20090093473A1, “Spiro-benzimidazoles as inhibitors of gastric acid secretion” (priority 2005, published 2009).

Key:
[1] = test system: pentagastrin-stimulated acid secretion of the perfused rat stomach; assay: Secretion-inhibiting action on the perfused rat stomach (pentagastrin-stimulated acid secretion); format: in vivo; settings: intraduodenal, anesthetized CD rat, dose 1 μmol/kg i.d.
Excerpt: Testing of the Secretion-Inhibiting Action on the Perfused Rat Stomach
In Table A which follows, the influence of the compounds of the formula 1 according to the invention on the pentagastrin-stimulated acid secretion of the perfused rat stomach after intraduodenal administration in vivo is shown.
The abdomen of anesthetized rats (CD rat, female, 200-250 g; 1.5 g/kg i.m. urethane) was opened after tracheotomy by a median upper abdominal incision and a PVC catheter was fixed transorally in the esophagus and another via the pylorus such that the ends of the tubes just projected into the gastric lumen. The catheter leading from the pylorus led outward into the right abdominal wall through a side opening.
After thorough rinsing (about 50-100 ml), warm (37° C.) physiological NaCl solution was conbinuously passed through the stomach (0.5 ml/min, pH 6.8-6.9; Braun-Unita I). The pH (pH meter 632, glass electrode EA 147; φ=5 mm, Metrohm) and, by titration with a freshly prepared 0.01N NaOH solution to pH 7 (Dosimat 665 Metrohm), the secreted HCl were determined in the effluent in each case collected at an interval of 15 minutes.
The gastric secretion was stimulated by continuous infusion of 1 μg/kg (=1.65 mllh) of i.v. pentagastrin (left femoral vein) about 30 min after the end of the operation (i.e. after determination of 2 preliminary fractions). The substances to be tested were administered intraduodenally in a 2.5 ml/kg liquid volume 60 min after the start of the continuous pentagastrin infusion. The body temperature of the animals was kept at a constant 37.8-38° C. by infrared irradiation and heat pads (automatic, stepless control by means of a rectal temperature sensor).

Structure (SMILES) | inhibition in vivo at 1 µmol/kg [1] | melting point
Cc1nc2c3c(c(C(=O)N4CC(F)C4)cc2n1C)CCC1(Cc2ccccc2C1)N3 [Example 15, 5-[(3-fluoroazetidin-1-yl)carbonyl]-2,3-dimethyl-1′,3,3′,6,7,9-hexahydrospiro[imidazo[4,5-h]quinoline-8,2′-indene]] | > 80% | 259 to 260 °C
Cc1nc2c3c(c(C(=O)N4CCCC4)cc2n1C)CCC1(Cc2ccccc2C1)N3 [Example 22, 2,3-dimethyl-5-(pyrrolidin-1-ylcarbonyl)-1′,3,3′,6,7,9-hexahydrospiro[imidazo[4,5-h]-quinoline-8,2′-indene]] | > 80% | 263 to 264 °C
Cc1nc2c3c(c(C(=O)NCCO)cc2n1C)CCC1(Cc2ccccc2C1)N3 [Example 17, N-(2-hydroxyethyl)-2,3-dimethyl-1′,3,3′,6,7,9-hexahydrospiro[imidazo[4,5-h]quinoline-8,2′-indene]-5-carboxamide] |  | 167 to 168 °C
Cc1nc2c3c(c(C(=O)NCCCO)cc2n1C)CCC1(Cc2ccccc2C1)N3 [Example 26, N-(3-hydroxypropyl)-2,3-dimethyl-1′,3,3′,6,7,9-hexahydrospiro[imidazo[4,5-h]quinoline-8,2′-indene]-5-carboxamide] |  | 237 to 238 °C
CNC(=O)c1cc2c(nc(C)n2C)c2c1CCC1(Cc3ccccc3C1)N2 [Example 4, N,2,3-Trimethyl-1′,3,3′,6,7,9-hexahydrospiro[imidazo[4,5-h]quinoline-8,2′-indene]-5-carboxamide] | > 80% | 237 to 238 °C
Cc1nc2c3c(c(C(=O)N(C)C)cc2[nH]1)CCC1(Cc2ccccc2C1)N3 [Example 10, N,N,2-Trimethyl-1′,3,3′,6,7,9-hexahydrospiro[imidazo[4,5-h]quinoline-8,2′-indene]-5-carboxamide] |  | 183 °C
COCCNC(=O)c1cc2c(nc(C)n2C)c2c1CCC1(Cc3ccccc3C1)N2.O=C(O)/C=C\C(=O)O [Example 33, N-(2-methoxyethyl)-2,3-dimethyl-1′,3,3′,6,7,9-hexahydrospiro[imidazo[4,5-h]quinoline-8,2′-indene]-5-carboxamide maleate] |  | 191 to 192 °C
Cc1nc2c3c(c(CO)cc2n1C)CCC1(Cc2ccccc2C1)N3 [Example 6, (2,3-Dimethyl-1′,3,3′,6,7,9-hexahydrospiro[imidazo[4,5-h]quinoline-8,2′-inden]-5-yl)-methanol] |  | 272 to 274 °C
Cc1nc2c3c(c(C(=O)N4CC(O)C4)cc2n1C)CCC1(Cc2ccccc2C1)N3 [Example 13, 1-[(2,3-dimethyl-1′,3,3′,6,7,9-hexahydrospiro[imidazo[4,5-h]quinoline-8,2′-inden]-5-yl)-carbonyl]azetidin-3-ol] |  | 171 to 172 °C
Cc1nc2c3c(c(C(=O)N(C)CCO)cc2n1C)CCC1(Cc2ccccc2C1)N3 [Example 12, N-(2-hydroxyethyl)-N,2,3-trimethyl-1′,3,3′,6,7,9-hexahydrospiro[imidazo[4,5-h]quinoline-8,2′-indene]-5-carboxamide] |  | 194 to 195 °C
Cc1nc2c3c(c(C(=O)N4CCC4)cc2n1C)CCC1(Cc2ccccc2C1)N3 [Example 23, 5-(azetidin-1-ylcarbonyl)-2,3-dimethyl-1′,3,3′,6,7,9-hexahydrospiro[imidazo[4,5-h]-quinoline-8,2′-indene]] | > 80% | 222 to 223 °C
CCOCCNC(=O)c1cc2c(nc(C)n2C)c2c1CCC1(Cc3ccccc3C1)N2 [Example 31, N-(2-ethoxyethyl)-2,3-dimethyl-1′,3,3′,6,7,9-hexahydrospiro[imidazo[4,5-h]quinoline-8,2′-indene]-5-carboxamide] |  | 180 to 181 °C
Cc1nc2c3c(c(C(=O)NC[C@H](C)O)cc2n1C)CCC1(Cc2ccccc2C1)N3 [Example 20, N-[(2S)-2-hydroxypropyl]-2,3-dimethyl-1′,3,3′,6,7,9-hexahydrospiro[imidazo[4,5-h]-quinoline-8,2′-indene]-5-carboxamide] |  | 224 to 225 °C
CC(=O)CNC(=O)c1cc2c(nc(C)n2C)c2c1CCC1(Cc3ccccc3C1)N2 [Example 14, 2,3-dimethyl-N-(2-oxopropyl)-1′,3,3′,6,7,9-hexahydrospiro[imidazo[4,5-h]quinoline-8,2′-indene]-5-carboxamide] | > 80% | 222 to 223 °C
Cc1nc2c3c(c(C(N)=O)cc2n1C)CCC1(Cc2ccccc2C1)N3 [Example 18, 2,3-dimethyl-1′,3,3′,6,7,9-hexahydrospiro[imidazo[4,5-h]quinoline-8,2′-indene]-5-carboxamide] | > 80% | 272 to 273 °C
COCCNC(=O)c1cc2c(nc(C)n2C)c2c1CCC1(Cc3ccccc3C1)N2 [Example 16, N-(2-methoxyethyl)-2,3-dimethyl-1′,3,3′,6,7,9-hexahydrospiro[imidazo[4,5-h]quinoline-8,2′-indene]-5-carboxamide] | > 80% | 186 to 187 °C
CNC(=O)c1cc2c(nc(C)n2C)c2c1CCC1(Cc3ccccc3C1)N2.CS(=O)(=O)O [Example 28, N,2,3-Trimethyl-1′,3,3′,6,7,9-hexahydrospiro[imidazo[4,5-h]quinoline-8,2′-indene]-5-carboxamide methanesulphonate] |  | 321 to 324 °C
Cc1nc2c3c(c(C(=O)N(C)C)cc2n1C)CCC1(Cc2ccccc2C1)N3 [Example 11, N,N,2,3-tetramethyl-1′,3,3′,6,7,9-hexahydrospiro[imidazo[4,5-h]quinoline-8,2′-indene]-5-carboxamide] | > 80% | 178 to 179 °C
COCCNC(=O)c1cc2c(nc(C)n2C)c2c1CCC1(Cc3ccccc3C1)N2.Cl |  | 294 to 295 °C
CS(=O)(=O)O.Cc1nc2c3c(c(C(=O)NC4CC4)cc2n1C)CCC1(Cc2ccccc2C1)N3 [Example 37, N-cyclopropyl-2,3-dimethyl-1′,3,3′,6,7,9-hexahydrospiro[imidazo[4,5-h]quinoline-8,2′-indene]-5-carboxamide methanesulphonate] |  | 308 to 309 °C
CNC(=O)c1cc2[nH]c(C)nc2c2c1CCC1(Cc3ccccc3C1)N2 [Example 9, N,2-dimethyl-1′,3,3′,6,7,9-hexahydrospiro[imidazo[4,5-h]quinoline-8,2′-indene]-5-carboxamide] |  | 240 to 241 °C
Cc1nc2c3c(c(C(=O)N(C)C[C@H](C)O)cc2n1C)CCC1(Cc2ccccc2C1)N3 [Example 19, N-[(2S)-2-hydroxypropyl]-N,2,3-trimethyl-1′,3,3′,6,7,9-hexahydrospiro[imidazo[4,5-h]-quinoline-8,2′-indene]-5-carboxamide] |  | 258 to 259 °C
CNC(=O)c1cc2c(nc(C)n2C)c2c1CCC1(Cc3ccccc3C1)N2.Cl |  | 309 to 311 °C
CCOC(=O)c1cc2c(nc(C)n2C)c2c1CCC1(Cc3ccccc3C1)N2 [Example 1, Ethyl 2,3-dimethyl-1′,3,3′,6,7,9-hexahydrospiro[imidazo[4,5-h]quinoline-8,2′-indene]-5-carboxylate] |  | 167 to 168 °C
COCCNC(=O)c1cc2c(nc(C)n2C)c2c1CCC1(Cc3ccccc3C1)N2.O=C(O)CC(=O)O [Example 34, N-(2-methoxyethyl)-2,3-dimethyl-1′,3,3′,6,7,9-hexahydrospiro[imidazo[4,5-h]quinoline-8,2′-indene]-5-carboxamide malonate] |  | 176 to 177 °C
C=CCn1c(C)nc2c3c(c(C(=O)OC)cc21)CCC1(Cc2ccccc2C1)N3 [Example 2, Methyl 3-allyl-2-methyl-1′,3,3′,6,7,9-hexahydrospiro[imidazo[4,5-h]quinoline-8,2′-indene]-5-carboxylate] |  | 142 to 142.5 °C
Cc1nc2c3c(c(C(=O)NC4CC4)cc2n1C)CCC1(Cc2ccccc2C1)N3.O=C(O)C(=O)O [Example 36, N-cyclopropyl-2,3-dimethyl-1′,3,3′,6,7,9-hexahydrospiro[imidazo[4,5-h]quinoline-8,2′-indene]-5-carboxamide oxalate] |  | 242 to 243 °C
C=CCn1c(C)nc2c3c(c(C(=O)OCC)cc21)CCC1(Cc2ccccc2C1)N3 [Example 3, Ethyl 3-allyl-2-methyl-1′,3,3′,6,7,9-hexahydrospiro[imidazo[4,5-h]quinoline-8,2′-indene]-5-carboxylate] |  | 150 °C
CNC(=O)c1cc2c(nc(C)n2C)c2c1CCC1(Cc3ccccc3C1)N2.O=C(O)CC(=O)O [Example 30, N,2,3-Trimethyl-1′,3,3′,6,7,9-hexahydrospiro[imidazo[4,5-h]quinoline-8,2′-indene]-5-carboxamide malonate] |  | 261 to 263 °C
CCNC(=O)c1cc2c(nc(C)n2C)c2c1CCC1(Cc3ccccc3C1)N2 [Example 32, N-ethyl-2,3-dimethyl-1′,3,3′,6,7,9-hexahydrospiro[imidazo[4,5-h]quinoline-8,2′-indene]-5-carboxamide] |  | 223 to 224 °C
